Consider nine compounds from patent US9115169B2, “Method of treating tumors” (Lytix Biopharma AS, priority 2000, dated 2015).

In assay [1] the test system is Escherichia coli ATCC 25922. The assay is described as follows: microbe, parasite or virus in culture. The settings on record: ATCC25922, read-out: MIC E. coli.
The subject of assay [2] is Staphylococcus aureus ATCC 25923. The experiment in a line: microbe, parasite or virus in culture. Conditions: ATCC25923, read-out: MIC S. aureus.
The test system of assay [3] is fresh human red blood cells. Type of assay: cell-based. As for the experimental part:
The hemolytic activities of the peptides were determined using fresh human red blood cells. 8 ml blood was taken from a healthy person. 4 ml blood was transferred to a polycarbonate tube containing heparin to a final concentration of 10 U/ml, and the remaining 4 ml blood was transferred to a glass tube containing EDTA with final concentration of 15% EDTA. The erythrocytes were isolated from heparin-treated blood by centrifugation in 1500 rpm for 10 min and washed three times with phosphate-buffered saline (PBS) to remove plasma and buffy coat. The cell pellet was resuspended in PBS to make the final volume of 4 ml. The peptide was diluted to a concentration of 2 mg/ml and 0.1 mg/ml. The peptide was further diluted to the concentrations as stated in Table 15. For each tube PBS was added first, then RBCs and peptide solutions. The hematocrit in the blood treated with EDTA was determined after 30 min with Sysmex K-1000, and the resuspended RBCS were diluted into 10% hematocrit. RBCs in PBS (1%) with and without peptides (Table 15) were incubated in a shaker at 37° for 1 hour and then centrifuged at 4000 rpm for 5 min. The supernatant were carefully transferred to new polycarbonate tubes and the absorbance of the supernatant was measured at 540 nm. […]

Assay [4] concerns Escherichia coli ATCC 25922. Conditions: ATCC 25922.
Assay [5] deals with Staphylococcus aureus ATCC 25923. Conditions: ATCC 25923.
Assay [6] deals with Escherichia coli ATCC 25922. Conditions: for MBC E. coli: ATCC 25922; for bacteriostatic or bactericidal: in respect of E. coli, high MBC but low MIC indicates bacteriostatic.
For assay [7], the system named is Staphylococcus aureus ATCC 25923. Conditions: ATCC 25923. This is another data set of the same source.
A further assay concerns MRSA ATCC 33591. Conditions: ATCC 33591.
A further assay has as its system MRSE ATCC 27626. The settings on record: ATCC 27626.
The test system of another assay is E. coli. The assay is described as follows: Electronmicrograph of treated bacteria. It is filed as cell-based. The settings on record: FIG. 2. The source says:
FIG. 1 is an electronmicrograph of normal (untreated) E. coli, and
FIG. 2 is an electronmicrograph of E. coli treated with one of the peptides described herein, WRWRWR [SEQ ID NO:1].

≈ marks a conversion by molar mass, not a printed value. Where a SMILES comes first, the peptide text is derived from it. [ ]: non-standard residue; d: D form. The star is where a group is joined. Phe(4-tBu) = CC(C)(C)c1ccc(C[C@H](N)C(=O)O)cc1; Tle = CC(C)(C)[C@H](N)C(=O)O; OBn = c1ccc(CO*)cc1

Method for MRSA ATCC 33591: (§1) All strains were stored at −70° C. […] All assays were performed in duplicate.
Method for MRSE ATCC 27626: as §1
Method for P. aeruginosa: as §1

On to `CC(C)(C)c1cc(C(C)(C)C)c2[nH]c(C(C)(C)C)c(C[C@H](N)C(=O)NCCCCN)c2c1` [H-Tbt-Dab-H], for which the MIC in assay [1] and in assay [2] was 35 µg/mL (≈ 79.1 µM) in each case.

With `CC(C)(C)c1cc(C(C)(C)C)c2[nH]c(C(C)(C)C)c(C[C@H](N)C(=O)NCCN)c2c1` [H-Tbt-Dae-H], the MIC in assay [1] and in assay [2] was 15 µg/mL (≈ 36.2 µM) each time.

Consider `CC(C)(C)c1cc(C(C)(C)C)c2[nH]c(C(C)(C)C)c(C[C@H](N)C(=O)NCCCCCCN)c2c1` [H-Tbt-Dah-H], for which the MIC in assay [1] and in assay [2] was 15 µg/mL (≈ 31.9 µM) in each case.

`COC(=O)[C@H](CCCNC(=N)N)NC(=O)[C@H](Cc1c(C(C)(C)C)[nH]c2c(C(C)(C)C)cc(C(C)(C)C)cc12)NC(=O)[C@@H](N)CCCNC(=N)N` [RTbtR OMe, H-Arg-Tbt-Arg-OMe]: the “haemolysis EC50” value in [3] came to 720 µg/mL. The “MIC E. coli” value in assay [4] is 25 µg/mL (≈ 35.8 µM). For the same compound, the “MIC S. aureus” value in [5] is reported as 5 (5) μg/ml. Besides, in assay [6], the “MBC E. coli” value was 50 µg/mL (≈ 71.5 µM) and the bacteriostatic or bactericidal entry was “bactericidal”. Further, the “MBC S. aureus” value in assay [7] is reported as 5 (5) μg/ml.

For the compound `COC(=O)[C@H](CCCNC(=N)N)NC(=O)[C@@H](N)Cc1c(C(C)(C)C)[nH]c2c(C(C)(C)C)cc(C(C)(C)C)cc12` [TbtR OMe, H-Tbt-Arg-OMe], the “haemolysis EC50” value in [3] was found to be 360 µg/mL. Moreover, the “MIC MRSA” value with MRSA ATCC 33591 came out at 4.0 µg/mL (≈ 7.37 µM). For the same compound, the “MIC MRSE” value against MRSE ATCC 27626 amounted to 4.0 µg/mL (≈ 7.37 µM). Besides, in assay [6], the “MBC E. coli” value is 200 µg/mL (≈ 368 µM) and the bacteriostatic or bactericidal entry was “bacteriostatic”. For the same compound, in [7], the “MBC S. aureus” value is listed as 10 (10) μg/ml.

Take `N=C(N)NCCC[C@H](NC(=O)[C@H](Cc1c[nH]c2ccccc12)NC(=O)[C@H](CCCNC(=N)N)NC(=O)[C@H](Cc1c[nH]c2ccccc12)NC(=O)[C@H](CCCNC(=N)N)NC(=O)[C@@H](N)Cc1c[nH]c2ccccc12)C(N)=O` [WRWRWR] (H-WRWRWR-NH2): the “appearance of treated E. coli in electronmicrograph” value with E. coli is “void of cytoplasmic matter and their cell membranes (as well as cell wall components) are destroyed”. For the same compound, the “MIC E. coli” value in [4] worked out at 7.5 µg/mL (≈ 7.18 µM). Besides, the “MIC S. aureus” value in assay [5] turned out to be 7.5 µg/mL (≈ 7.18 µM). Moreover, the “MBC E. coli” value in [6] worked out at 15 µg/mL (≈ 14.4 µM). Besides, the “MBC S. aureus” value in assay [7] was 10 µg/mL (≈ 9.58 µM).

In the case of `CC(C)(C)c1ccc(C[C@H](N)C(=O)N[C@@H](CCCNC(=N)N)C(=O)OCc2ccccc2)cc1` [tBuFR-OBzl] (H-[Phe(4-tBu)]-Arg-OBn; N-terminus assumed), the “MIC E. coli” value in [4] was found to be 200.0 µg/mL (≈ 428 µM). Moreover, the “MIC S. aureus” value in assay [5] is 25.0 µg/mL (≈ 53.5 µM). Besides, in the assay on MRSA ATCC 33591, the “MIC MRSA” value was 12.5 to 25 µg/mL. Further, in the assay on MRSE ATCC 27626, the “MIC MRSE” value worked out at 5.0 µg/mL (≈ 10.7 µM). In addition, the “MIC P. aerug.” value in the assay with P. aeruginosa came to 100.0 µg/mL (≈ 214 µM).

On to `COC(=O)[C@H](CCCNC(=N)N)NC(=O)[C@@H](N)Cc1ccc(C(C)(C)C)cc1` [tBuFR-OMe] (H-[Phe(4-tBu)]-Arg-OMe; N-terminus assumed), for which, in assay [4], the “MIC E. coli” value was greater than 300.0 µg/mL. In assay [5], the “MIC S. aureus” value is greater than 300.0 µg/mL. Further, the “MIC MRSA” value in the assay on MRSA ATCC 33591 turned out to be 100.0 µg/mL (≈ 255 µM). Moreover, the “MIC MRSE” value in the assay with MRSE ATCC 27626 is 100.0 µg/mL (≈ 255 µM). Besides, the “MIC P. aerug.” value against P. aeruginosa is greater than 300.0 µg/mL.

For the compound `CC(C)(C)[C@H](N)C(=O)N[C@@H](CCCNC(=N)N)C(=O)OCc1ccccc1` [tBuGR-OBzl] (H-[Tle]-Arg-OBn; N-terminus assumed), in assay [4], the “MIC E. coli” value was greater than 300.0 µg/mL. In addition, the “MIC S. aureus” value in assay [5] is greater than 300.0 µg/mL. In the assay on MRSA ATCC 33591, the “MIC MRSA” value amounted to 100.0 µg/mL (≈ 265 µM). The “MIC MRSE” value in the assay on MRSE ATCC 27626 came to 150.0 µg/mL (≈ 397 µM). The “MIC P. aerug.” value against P. aeruginosa is greater than 300.0 µg/mL.
